From patent US20240308968A1, “FUNGICIDAL SUBSTITUTED HETEROCYCLES” (FMC Corporation, priority 2021, published 2024)
Each block holds one compound with its values, some of them ahead of it.

Legend:
[1] = test system: Blumeria graminis f. sp. Tritici; assay: Test C: preventive spray on wheat seedlings, wheat powdery mildew disease rating; type: in vivo; details: 100 = 100% disease control, 0 = no control; for pest or weed control at 50 ppm / pest or weed control at 250 ppm: Blumeria graminis, 192 h
Summary of the method: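 Wheat seedlings sprayed to run-off with test suspension (acetone 3% dissolution, then acetone/water 50/50 with 50–250 ppm PEG400), inoculated next day with Blumeria graminis spore dust. Held 8 days at 20° C in growth chamber, then visually rated (100 = full control, 0 = none, relative to controls).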

Botrytis cinerea = assay: Test E: preventive spray on tomato seedlings, tomato Botrytis disease rating; type: in vivo; details: 100 = 100% disease control, 0 = no control; for pest or weed control at 50 ppm / pest or weed control at 250 ppm: Botrytis cinerea, 120 h
Summary of the method: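 Tomato seedlings sprayed to run-off with compound suspended in acetone/water with PEG400 surfactant, then inoculated next day with Botrytis cinerea spores. Held 48 h saturated at 20 °C, then 3 days at 24 °C; disease rated visually, 0 to 100% control relative to controls.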

Phakopsora pachyrhizi = assay: Test D: preventive spray on soybean seedlings, Asian soybean rust disease rating; type: in vivo; details: 100 = 100% disease control, 0 = no control; for pest or weed control at 50 ppm / pest or weed control at 250 ppm: Phakopsora pachyrhizi, 216 h
Summary of the method: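 Compounds in acetone/water (50/50) with 50–250 ppm PEG400 sprayed to run-off on soybean seedlings; inoculated next day with P. pachyrhizi spores, held 24 h saturated at 22° C, then 8 days at 22° C before visual disease rating.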

Zymoseptoria tritici = assay: Test A: preventive spray on wheat seedlings, wheat leaf blotch disease rating; type: in vivo; details: 100 = 100% disease control, 0 = no control; for pest or weed control at 50 ppm / pest or weed control at 250 ppm: Zymoseptoria tritici, 456 h
Summary of the method: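 Compounds in acetone/water (50/50) with 50–250 ppm PEG400, sprayed to run-off on wheat seedlings. Inoculated next day with Z. tritici spores, 48 h saturated atmosphere at 24 °C, then 17 days at 20 °C before disease rating.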

[2] = test system: Puccinia recondita f. sp. Tritici; assay: Test B: preventive spray on wheat seedlings, wheat leaf rust disease rating; type: in vivo; details: 100 = 100% disease control, 0 = no control; for pest or weed control at 50 ppm / pest or weed control at 250 ppm: Puccinia recondita, 192 h
Summary of the method: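 Compounds in acetone/water (50/50) with 50-250 ppm PEG400 sprayed to run-off on wheat seedlings; inoculated with P. recondita spores next day. Held 24 h saturated at 20° C., then 7 days in growth chamber at 20° C. before rating; 100 = full control, 0 = none versus controls.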

Alternaria solani = assay: Test F: preventive spray on tomato seedlings, tomato early blight disease rating; type: in vivo; details: 100 = 100% disease control, 0 = no control; for pest or weed control at 50 ppm / pest or weed control at 250 ppm: Alternaria solani, 120 h
Summary of the method: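 Tomato seedlings were sprayed to run-off with compound suspensions in ppm (acetone/water with PEG400 surfactant) and inoculated with Alternaria solani spores the next day. Plants were held 48 h saturated at 27 °C, then 3 days at 20 °C. Disease was rated visually, with 100 as full control and 0 as none, relative to controls.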

melting point: 100 to 103 °C
SMILES: CCn1c(-c2ccc(F)cc2Cl)c(-c2cc(OC)cc(OC)c2Cl)cc(C#N)c1=O [Compound 157, 5-(2-chloro-3,5-dimethoxyphenyl)-6-(2-chloro-4-fluorophenyl)-1,2-dihydro-1-ethyl-2-oxo-3-pyridinecarbonitrile]
pest or weed control at 50 ppm ([1]; 50 ppm): 96%
pest or weed control at 50 ppm (Botrytis cinerea; 50 ppm): 99%
pest or weed control at 50 ppm (Phakopsora pachyrhizi; 50 ppm): 97%
pest or weed control at 50 ppm (Zymoseptoria tritici; 50 ppm): 100%
pest or weed control at 50 ppm ([2]; 50 ppm): 100%
pest or weed control at 50 ppm (Alternaria solani; 50 ppm): 98%

melting point: 106 to 108 °C
SMILES: COc1ccc(Cl)c(-c2cc(C)nc(C)c2-c2ccc(F)cc2Cl)c1 [Compound 138, 3-(2-chloro-4-fluorophenyl)-4-(2-chloro-5-methoxyphenyl)-2,6-dimethylpyridine]

melting point: 191 to 194 °C
SMILES: COc1cc(OC)c(Cl)c(-n2nc(Br)c(=O)c(C)c2-c2ccc(F)cc2Cl)c1 [Compound 94, 3-bromo-6-(2-chloro-4-fluorophenyl)-1-(2-chloro-3,5-dimethoxyphenyl)-5-methyl-4(1H)-pyridazinone]
pest or weed control at 50 ppm ([1]; 50 ppm): 100%
pest or weed control at 50 ppm (Botrytis cinerea; 50 ppm): 98%
pest or weed control at 50 ppm (Phakopsora pachyrhizi; 50 ppm): 100%
pest or weed control at 50 ppm (Zymoseptoria tritici; 50 ppm): 100%
pest or weed control at 50 ppm ([2]; 50 ppm): 100%
pest or weed control at 50 ppm (Alternaria solani; 50 ppm): 100%

melting point: 124 to 127 °C
SMILES: COc1cc(OC)cc(-n2nc(C)c(=O)c(C)c2-c2ccc(F)cc2F)c1 [Compound 29, 6-(2,4-difluorophenyl)-1-(3,5-dimethoxyphenyl)-3,5-dimethyl-4(1H)-pyridazinone]
pest or weed control at 50 ppm ([1]; 50 ppm): 100%
pest or weed control at 50 ppm (Botrytis cinerea; 50 ppm): 98%
pest or weed control at 50 ppm (Phakopsora pachyrhizi; 50 ppm): 99%
pest or weed control at 50 ppm (Zymoseptoria tritici; 50 ppm): 100%
pest or weed control at 50 ppm ([2]; 50 ppm): 100%
pest or weed control at 50 ppm (Alternaria solani; 50 ppm): 100%

melting point: 171 to 173 °C
SMILES: CCn1c(-c2c(F)cc(F)cc2F)c(-c2cc(OC)cc(OC)c2Cl)cc(C#N)c1=O [Compound 70, 5-(2-chloro-3,5-dimethoxyphenyl)-1,2-dihydro-1-ethyl-2-oxo-6-(2,4,6-trifluorophenyl)-3-pyridinecarbonitrile]
pest or weed control at 50 ppm ([1]; 50 ppm): 99%
pest or weed control at 50 ppm (Botrytis cinerea; 50 ppm): 96%
pest or weed control at 50 ppm (Phakopsora pachyrhizi; 50 ppm): 100%
pest or weed control at 50 ppm (Zymoseptoria tritici; 50 ppm): 100%
pest or weed control at 50 ppm ([2]; 50 ppm): 100%
pest or weed control at 50 ppm (Alternaria solani; 50 ppm): 98%

melting point: 159 to 162 °C
SMILES: COc1cc(OC)c(Cl)c(-c2cc(C#N)c(=O)n(C)c2-c2c(F)cc(F)cc2F)c1 [Compound 68, 5-(2-chloro-3,5-dimethoxyphenyl)-1,2-dihydro-1-methyl-2-oxo-6-(2,4,6-trifluorophenyl)-3-pyridinecarbonitrile]
pest or weed control at 50 ppm ([1]; 50 ppm): 99%
pest or weed control at 50 ppm (Botrytis cinerea; 50 ppm): 93%
pest or weed control at 50 ppm (Phakopsora pachyrhizi; 50 ppm): 100%
pest or weed control at 50 ppm (Zymoseptoria tritici; 50 ppm): 100%
pest or weed control at 50 ppm ([2]; 50 ppm): 100%
pest or weed control at 50 ppm (Alternaria solani; 50 ppm): 99%

SMILES: COc1cc(OC)c(Cl)c(-c2c(-c3ccc(F)cc3F)noc(=O)c2C)c1 [Compound 62]
Test C disease control rating ([1]; 50 ppm): 76%
Test E disease control rating (Botrytis cinerea; 50 ppm): 97%
Test D disease control rating (Phakopsora pachyrhizi; 50 ppm): 87%
Test A disease control rating (Zymoseptoria tritici; 50 ppm): 100%
Test B disease control rating ([2]; 50 ppm): 99%
Test F disease control rating (Alternaria solani; 50 ppm): 0%

SMILES: COc1cc(OC)cc(-c2nc(C)nc(OC)c2-c2ccc(F)cc2Cl)c1 [Compound 58]
Test C disease control rating ([1]; 50 ppm): 21%
Test E disease control rating (Botrytis cinerea; 50 ppm): 79%
Test D disease control rating (Phakopsora pachyrhizi; 50 ppm): 0%
Test A disease control rating (Zymoseptoria tritici; 50 ppm): 24%
Test B disease control rating ([2]; 50 ppm): 0%
Test F disease control rating (Alternaria solani; 50 ppm): 0%

SMILES: COc1cc(OC)cc(-n2nc(CC#N)c(=O)c(C)c2-c2ccc(F)cc2F)c1 [Compound 31]
Test C disease control rating ([1]; 50 ppm): 0%
Test E disease control rating (Botrytis cinerea; 50 ppm): 9%
Test D disease control rating (Phakopsora pachyrhizi; 50 ppm): 0%
Test A disease control rating (Zymoseptoria tritici; 50 ppm): 61%
Test B disease control rating ([2]; 50 ppm): 0%
Test F disease control rating (Alternaria solani; 50 ppm): 0%

SMILES: COc1ccc(Cl)c(-n2nc(Cl)c(=O)c(Br)c2-c2ccc(F)cc2Cl)c1 [Compound 134]
Test C disease control rating ([1]; 50 ppm): 86%
Test E disease control rating (Botrytis cinerea; 50 ppm): 99%
Test D disease control rating (Phakopsora pachyrhizi; 50 ppm): 100%
Test A disease control rating (Zymoseptoria tritici; 50 ppm): 100%
Test B disease control rating ([2]; 50 ppm): 100%
Test F disease control rating (Alternaria solani; 50 ppm): 99%

SMILES: COc1cc(OC)c(Cl)c(-c2nc(C)nc(C)c2-c2c(F)cc(F)cc2F)c1 [Compound 54, 4-(2-chloro-3,5-dimethoxyphenyl)-2,6-dimethyl-5-(2,4,6-trifluorophenyl)pyrimidine]
pest or weed control at 50 ppm ([1]; 50 ppm): 100%
pest or weed control at 50 ppm (Botrytis cinerea; 50 ppm): 97%
pest or weed control at 50 ppm (Phakopsora pachyrhizi; 50 ppm): 100%
pest or weed control at 50 ppm (Zymoseptoria tritici; 50 ppm): 100%
pest or weed control at 50 ppm ([2]; 50 ppm): 100%
pest or weed control at 50 ppm (Alternaria solani; 50 ppm): 99%

SMILES: COC(=O)c1nn(-c2cc(OC)cc(OC)c2)c(-c2ccc(F)cc2F)c(C)c1=O [Compound 24]
Test C disease control rating ([1]; 50 ppm): 0%
Test E disease control rating (Botrytis cinerea; 50 ppm): 0%
Test D disease control rating (Phakopsora pachyrhizi; 50 ppm): 0%
Test A disease control rating (Zymoseptoria tritici; 50 ppm): 8%
Test B disease control rating ([2]; 50 ppm): 0%
Test F disease control rating (Alternaria solani; 50 ppm): 0%

SMILES: COc1cc(OC)cc(-c2nc(C)nc(C)c2-c2c(F)cc(F)cc2F)c1 [Compound 53, 4-(3,5-dimethoxyphenyl)-2,6-dimethyl-5-(2,4,6-trifluorophenyl)pyrimidine]
pest or weed control at 50 ppm ([1]; 50 ppm): 100%
pest or weed control at 50 ppm (Botrytis cinerea; 50 ppm): 96%
pest or weed control at 50 ppm (Phakopsora pachyrhizi; 50 ppm): 97%
pest or weed control at 50 ppm (Zymoseptoria tritici; 50 ppm): 100%
pest or weed control at 50 ppm ([2]; 50 ppm): 100%
pest or weed control at 50 ppm (Alternaria solani; 50 ppm): 97%

SMILES: Cc1c(-c2ccc(F)cc2Cl)c(-c2ccn(C)n2)nn(C)c1=O [Compound 20]
Test C disease control rating ([1]; 50 ppm): 72%
Test E disease control rating (Botrytis cinerea; 50 ppm): 33%
Test D disease control rating (Phakopsora pachyrhizi; 50 ppm): 0%
Test A disease control rating (Zymoseptoria tritici; 50 ppm): 0%
Test B disease control rating ([2]; 50 ppm): 19%
Test F disease control rating (Alternaria solani; 50 ppm): 0%

SMILES: COc1cc(OC)cc(-c2nc(C)nc(C)c2-c2ccc(F)cc2Cl)c1 [Compound 44, 5-(2-chloro-4-fluorophenyl)-4-(3,5-dimethoxyphenyl)-2,6-dimethylpyrimidine]
pest or weed control at 250 ppm ([1]; 250 ppm): 99%
pest or weed control at 250 ppm (Botrytis cinerea; 250 ppm): 99%
pest or weed control at 250 ppm (Phakopsora pachyrhizi; 250 ppm): 95%
pest or weed control at 250 ppm (Zymoseptoria tritici; 250 ppm): 99%
pest or weed control at 250 ppm ([2]; 250 ppm): 100%
pest or weed control at 250 ppm (Alternaria solani; 250 ppm): 98%

SMILES: COc1cc(OC)c(Cl)c(-c2nc(C)nc(C)c2-c2ccc(F)cc2Cl)c1 [Compound 42, 4-(2-chloro-3,5-dimethoxyphenyl)-5-(2-chloro-4-fluorophenyl)-2,6-dimethylpyrimidine]
pest or weed control at 250 ppm ([1]; 250 ppm): 100%
pest or weed control at 250 ppm (Botrytis cinerea; 250 ppm): 99%
pest or weed control at 250 ppm (Phakopsora pachyrhizi; 250 ppm): 100%
pest or weed control at 250 ppm (Zymoseptoria tritici; 250 ppm): 96%
pest or weed control at 250 ppm ([2]; 250 ppm): 100%
pest or weed control at 250 ppm (Alternaria solani; 250 ppm): 100%

SMILES: COc1ccc(-c2c(Cl)c(=O)c(C)nn2-c2cc(OC)ccc2Cl)c(Cl)c1 [Compound 129]
Test C disease control rating ([1]; 50 ppm): 99%
Test E disease control rating (Botrytis cinerea; 50 ppm): 98%
Test D disease control rating (Phakopsora pachyrhizi; 50 ppm): 99%
Test A disease control rating (Zymoseptoria tritici; 50 ppm): 100%
Test B disease control rating ([2]; 50 ppm): 100%
Test F disease control rating (Alternaria solani; 50 ppm): 100%

SMILES: CCOC(=O)c1nn(-c2cc(OC)cc(OC)c2Cl)c(-c2ccc(F)cc2Cl)c(C)c1=O [Compound 98]
Test C disease control rating ([1]; 250 ppm): 0%
Test E disease control rating (Botrytis cinerea; 250 ppm): 96%
Test D disease control rating (Phakopsora pachyrhizi; 250 ppm): 94%
Test A disease control rating (Zymoseptoria tritici; 250 ppm): 0%
Test B disease control rating ([2]; 250 ppm): 98%
Test F disease control rating (Alternaria solani; 250 ppm): 0%

SMILES: CCn1c(-c2ccc(F)cc2Cl)c(-c2cc(OC)cc(OC)c2)cc(C#N)c1=O [Compound 155]
Test C disease control rating ([1]; 50 ppm): 0%
Test E disease control rating (Botrytis cinerea; 50 ppm): 92%
Test D disease control rating (Phakopsora pachyrhizi; 50 ppm): 0%
Test A disease control rating (Zymoseptoria tritici; 50 ppm): 8%
Test B disease control rating ([2]; 50 ppm): 89%
Test F disease control rating (Alternaria solani; 50 ppm): 0%

SMILES: COc1cc(OC)c(Cl)c(-n2nc(CO)c(=O)c(C)c2-c2ccc(F)cc2F)c1 [Compound 30, 1-(2-chloro-3,5-dimethoxyphenyl)-6-(2,4-difluorophenyl)-3-(hydroxymethyl)-5-methyl-4(1H)-pyridazinone]
pest or weed control at 50 ppm ([1]; 50 ppm): 98%
pest or weed control at 50 ppm (Botrytis cinerea; 50 ppm): 94%
pest or weed control at 50 ppm (Phakopsora pachyrhizi; 50 ppm): 92%
pest or weed control at 50 ppm (Zymoseptoria tritici; 50 ppm): 63%
pest or weed control at 50 ppm ([2]; 50 ppm): 100%
pest or weed control at 50 ppm (Alternaria solani; 50 ppm): 99%
